# In PubChem BioAssay (NCI):
#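 How tested: cells in 96-well plates exposed to compound for 48 hours at five concentrations. TGI is the concentration that stops growth completely.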
# Experiments:
# Assay in all cases: growth of human tumour cells (NCI), 48 h
# [1] = test system: 786-0 renal
# [2] = test system: A498 renal
# [3] = test system: A549 NSCLC
# [4] = test system: ACHN renal
# [5] = test system: CAKI-1 renal
# [6] = test system: CCRF-CEM leukemia
# [7] = test system: COLO 205 colon
# [8] = test system: DLD-1 colon
# [9] = test system: DMS 114 small cell lung
# [10] = test system: DMS 273 small cell lung
# [11] = test system: EKVX NSCLC
# [12] = test system: HCC-2998 colon
# [13] = test system: HCT-116 colon
# [14] = test system: HCT-15 colon
# [15] = test system: HL-60(TB) leukemia
# [16] = test system: HOP-18 NSCLC
# [17] = test system: HOP-62 NSCLC
# [18] = test system: HOP-92 NSCLC
# [19] = test system: HT29 colon
# [20] = test system: IGROV1 ovarian
# [21] = test system: K-562 leukemia
# [22] = test system: KM12 colon
# [23] = test system: KM20L2 colon
# [24] = test system: LOX IMVI melanoma
# [25] = test system: LXFL 529 NSCLC
# [26] = test system: M14 melanoma
# [27] = test system: MALME-3M melanoma
# [28] = test system: MOLT-4 leukemia
# [29] = test system: NCI-H226 lung
# [30] = test system: NCI-H23 lung
# [31] = test system: NCI-H460 lung
# [32] = test system: NCI-H522 lung
# [33] = test system: OVCAR-3 ovarian
# [34] = test system: OVCAR-4 ovarian
# [35] = test system: OVCAR-5 ovarian
# [36] = test system: OVCAR-8 ovarian
# [37] = test system: RPMI-8226 leukemia
# [38] = test system: RXF 393 renal
# [39] = test system: SF-268 CNS
# [40] = test system: SF-295 CNS
# [41] = test system: SF-539 CNS
# [42] = test system: SK-MEL-2 melanoma
# [43] = test system: SK-MEL-28 melanoma
# [44] = test system: SK-MEL-5 melanoma
# [45] = test system: SK-OV-3 ovarian
# [46] = test system: SN12C renal
# [47] = test system: SNB-19 CNS
# [48] = test system: SNB-75 CNS
# [49] = test system: SNB-78 CNS
# [50] = test system: SR leukemia
# [51] = test system: SW-620 colon
# [52] = test system: TK-10 renal
# [53] = test system: U251 CNS
# [54] = test system: UACC-257 melanoma
# [55] = test system: UACC-62 melanoma
# [56] = test system: UO-31 renal
# [57] = test system: XF 498 CNS
# [58] = test system: M19-MEL melanoma
compound,measurement,setting,value
CC/C=C\C/C=C\C/C=C\CCCCCCCC(=O)OCC(O)CO (centres undefined),TGI,[1],> 100 µM
same,TGI,[2],> 100 µM
same,TGI,[3],> 100 µM
same,TGI,[4],> 72.5 µM
same,TGI,[5],59.8 µM
same,TGI,[6],> 72.9 µM
same,TGI,[7],> 100 µM
same,TGI,[8],> 100 µM
same,TGI,[9],> 71 µM
same,TGI,[10],> 100 µM
same,TGI,[11],> 100 µM
same,TGI,[12],> 100 µM
same,TGI,[13],> 68.3 µM
same,TGI,[14],> 88 µM
same,TGI,[15],> 46 µM
same,TGI,[16],> 100 µM
same,TGI,[17],> 100 µM
same,TGI,[18],> 100 µM
same,TGI,[19],> 100 µM
same,TGI,[20],> 100 µM
same,TGI,[21],49 µM
same,TGI,[22],> 70.9 µM
same,TGI,[23],> 100 µM
same,TGI,[24],> 59.6 µM
same,TGI,[25],> 68.9 µM
same,TGI,[26],> 81.9 µM
same,TGI,[27],> 100 µM
same,TGI,[28],> 63.5 µM
same,TGI,[29],> 100 µM
same,TGI,[30],> 100 µM
same,TGI,[31],> 100 µM
same,TGI,[32],> 77.1 µM
same,TGI,[33],> 74.5 µM
same,TGI,[34],> 100 µM
same,TGI,[35],> 100 µM
same,TGI,[36],> 100 µM
same,TGI,[37],> 77.7 µM
same,TGI,[38],> 100 µM
same,TGI,[39],> 100 µM
same,TGI,[40],> 100 µM
same,TGI,[41],> 100 µM
same,TGI,[42],> 100 µM
same,TGI,[43],> 100 µM
same,TGI,[44],> 100 µM
same,TGI,[45],> 100 µM
same,TGI,[46],> 100 µM
same,TGI,[47],> 100 µM
same,TGI,[48],> 100 µM
same,TGI,[49],> 73.8 µM
same,TGI,[50],> 100 µM
same,TGI,[51],> 96.4 µM
same,TGI,[52],> 100 µM
same,TGI,[53],> 73.7 µM
same,TGI,[54],> 100 µM
same,TGI,[55],> 100 µM
same,TGI,[56],24.6 µM
same,TGI,[57],> 100 µM
COc1cccc(OC)c1C(=O)OCc1ccccc1,TGI,[1],> 100 µM
same,TGI,[3],> 100 µM
same,TGI,[4],> 100 µM
same,TGI,[5],> 100 µM
same,TGI,[6],> 100 µM
same,TGI,[7],> 100 µM
same,TGI,[8],> 100 µM
same,TGI,[9],> 100 µM
same,TGI,[11],> 100 µM
same,TGI,[13],> 100 µM
same,TGI,[14],> 100 µM
same,TGI,[15],> 100 µM
same,TGI,[17],> 100 µM
same,TGI,[18],> 100 µM
same,TGI,[19],> 100 µM
same,TGI,[20],> 100 µM
same,TGI,[21],> 100 µM
same,TGI,[22],> 100 µM
same,TGI,[23],> 100 µM
same,TGI,[25],> 100 µM
same,TGI,[26],> 100 µM
same,TGI,[58],> 100 µM
same,TGI,[28],> 100 µM
same,TGI,[29],> 100 µM
same,TGI,[30],> 100 µM
same,TGI,[31],> 100 µM
same,TGI,[32],> 100 µM
same,TGI,[33],> 100 µM
same,TGI,[34],> 100 µM
same,TGI,[36],> 100 µM
same,TGI,[37],> 100 µM
same,TGI,[38],> 100 µM
same,TGI,[39],> 100 µM
same,TGI,[40],> 100 µM
same,TGI,[41],> 100 µM
same,TGI,[42],> 100 µM
same,TGI,[43],> 100 µM
same,TGI,[44],> 100 µM
same,TGI,[45],> 100 µM
same,TGI,[46],> 100 µM
same,TGI,[48],> 100 µM
same,TGI,[50],> 100 µM
same,TGI,[51],> 100 µM
same,TGI,[52],> 100 µM
same,TGI,[53],> 100 µM
same,TGI,[54],> 100 µM
same,TGI,[55],> 100 µM
same,TGI,[57],> 100 µM
COc1ccc(-c2cc(Cc3cccs3)c(=O)[nH]n2)cc1,TGI,[1],> 100 µM
same,TGI,[3],> 100 µM
same,TGI,[4],> 100 µM
same,TGI,[7],> 100 µM
same,TGI,[9],> 100 µM
same,TGI,[10],> 100 µM
same,TGI,[11],> 100 µM
same,TGI,[12],> 100 µM
same,TGI,[13],> 100 µM
same,TGI,[14],> 100 µM
same,TGI,[18],> 100 µM
same,TGI,[19],> 100 µM
same,TGI,[20],> 100 µM
same,TGI,[22],> 100 µM
same,TGI,[23],> 100 µM
same,TGI,[25],> 100 µM
same,TGI,[58],> 100 µM
same,TGI,[27],> 100 µM
same,TGI,[29],> 100 µM
same,TGI,[30],> 100 µM
same,TGI,[33],> 100 µM
same,TGI,[35],> 100 µM
same,TGI,[36],> 100 µM
same,TGI,[38],> 100 µM
same,TGI,[39],> 100 µM
same,TGI,[40],> 100 µM
same,TGI,[41],> 100 µM
same,TGI,[42],> 100 µM
same,TGI,[43],> 100 µM
same,TGI,[44],49.5 µM
same,TGI,[45],> 100 µM
same,TGI,[46],> 100 µM
same,TGI,[47],> 100 µM
same,TGI,[48],> 100 µM
same,TGI,[49],> 100 µM
same,TGI,[51],> 100 µM
same,TGI,[52],> 100 µM
same,TGI,[53],> 100 µM
same,TGI,[54],> 100 µM
same,TGI,[55],> 100 µM
same,TGI,[56],> 100 µM
C#C[C@]1(O)CCCC2=CC(=O)CC[C@@]21C,TGI,[1],> 100 µM
same,TGI,[3],> 100 µM
same,TGI,[4],> 100 µM
same,TGI,[6],> 100 µM
same,TGI,[7],> 100 µM
same,TGI,[8],> 100 µM
same,TGI,[9],> 100 µM
same,TGI,[10],> 100 µM
same,TGI,[11],> 100 µM
same,TGI,[12],> 100 µM
same,TGI,[14],> 100 µM
same,TGI,[15],> 100 µM
same,TGI,[16],> 100 µM
same,TGI,[18],> 100 µM
same,TGI,[19],> 100 µM
same,TGI,[20],> 100 µM
same,TGI,[21],> 100 µM
same,TGI,[22],> 100 µM
same,TGI,[23],> 100 µM
same,TGI,[25],> 100 µM
same,TGI,[26],> 100 µM
same,TGI,[58],> 100 µM
same,TGI,[27],> 100 µM
same,TGI,[28],> 100 µM
same,TGI,[29],> 100 µM
same,TGI,[30],> 100 µM
same,TGI,[31],> 100 µM
same,TGI,[32],> 100 µM
same,TGI,[33],> 100 µM
same,TGI,[35],> 100 µM
same,TGI,[36],> 100 µM
same,TGI,[37],> 100 µM
same,TGI,[38],> 100 µM
same,TGI,[39],> 100 µM
same,TGI,[40],> 100 µM
same,TGI,[41],> 100 µM
same,TGI,[42],> 100 µM
same,TGI,[43],> 100 µM
same,TGI,[44],> 100 µM
same,TGI,[45],> 100 µM
same,TGI,[46],> 100 µM
same,TGI,[47],> 100 µM
same,TGI,[50],> 100 µM
same,TGI,[51],> 100 µM
same,TGI,[52],> 100 µM
same,TGI,[53],> 100 µM
same,TGI,[54],> 100 µM
same,TGI,[56],> 100 µM
